Measured values taken from patent publication US20220264923A1, “Taste Modifying Product” (Firmenich SA, priority 2011, published 2022).

Experiment: Umami effect of pure amide in pure water, panel versus MSG
Format: in vivo
Details: amide at 20ppm in mineral water vs 0.05% MSG; RUI=(umami intensity of the amide)/(umami intensity of MSG)*10; average of 5-10 trained panelists
Protocol: The amides were evaluated at 20ppm in mineral water in comparison with 0.05% monosodium glutamate (MSG). […] The Relative umami intensity (RUI) was calculated as follows: […] The following table gives the average of the notes obtained from all panelists.

Structure (SMILES)	Relative umami intensity (RUI)
COc1ccc(CCNC(=O)/C=C/c2ccc(OC)c(OC)c2)cc1 [Amide 1, (E)-3-(3,4-dimethoxyphenyl)-N-(4-methoxyphenethyl)acrylamide]	5.6
COc1ccc(/C=C/C(=O)NCCc2ccccc2)cc1OC [Amide 2]	3.8
COc1ccc(/C=C/C(=O)NCCc2ccc(OC)c(OC)c2)cc1OC [Amide 3]	3.3
COc1cccc(CCNC(=O)/C=C/c2ccc(OC)c(OC)c2)c1 [Amide 4, (E)-3-(3,4-dimethoxyphenyl)-N-(3-methoxyphenethyl)acrylamide]	10.2
COc1ccccc1CCNC(=O)/C=C/c1ccc(OC)c(OC)c1 [Amide 5]	3.2
COc1cc(CCNC(=O)/C=C/c2ccc(OC)c(OC)c2)cc(OC)c1 [Amide 6]	3.7
CCOc1cccc(CCNC(=O)/C=C/c2ccc(OC)c(OC)c2)c1 [Amide 7, (E)-3-(3,4-dimethoxyphenyl)-N-(3-ethoxyphenethyl)acrylamide]	9.8
CCCOc1cccc(CCNC(=O)/C=C/c2ccc(OC)c(OC)c2)c1 [Amide 8, (E)-3-(3,4-dimethoxyphenyl)-N-(3-propoxyphenethyl)acrylamide]	9.9
COc1ccc(/C=C/C(=O)NCCc2ccc(OC(C)C)cc2)cc1OC [Amide 9, (E)-3-(3,4-dimethoxyphenyl)-N-(4-isopropoxy-phenethyl)acrylamide]	6.5
CCc1ccc(CCNC(=O)/C=C/c2ccc(OC)c(OC)c2)cc1 [Amide 10, (E)-3-(3,4-dimethoxyphenyl)-N-(4-ethylphenethyl)acrylamide]	11.5
COc1ccc(/C=C/C(=O)NCCc2ccc(C)c(C)c2)cc1OC [Amide 11, (E)-3-(3,4-dimethoxyphenyl)-N-(3,4-dimethylphenethyl)acrylamide]	13.3
COc1ccc(/C=C/C(=O)NCCc2ccc(C(C)C)cc2)cc1OC [Amide 12, (E)-3-(3,4-dimethoxyphenyl)-N-(4-isopropylphenethyl)acrylamide]	5.9
COc1ccc(/C=C/C(=O)NCCc2ccc(OC)c(OC)c2)cc1 [Amide 14]	3.8
COc1ccc(/C=C/C(=O)NCCc2cccc(C)c2)cc1OC [Amide 17, (E)-3-(3,4-dimethoxyphenyl)-N-(3-methylphenethyl)acrylamide]	12.1
